Patent US10835416B2, “Ocular insert apparatus and methods” (ForSight Vision5, Inc., priority 2011, dated 2020)

Experiments:
eye of a subject = assay: IOP over time in a patient with a bimatoprost-loaded insert on one eye (FIG. 23); assay type: in vivo, human; conditions: right eye (OD) with ring insert, silicone matrix (NuSil Med 4810) with about 2% bimatoprost, decreased from about 22 mm Hg, to about 28 days post-op
Excerpt: (§1) Test devices comprising a ring shaped retention structure comprising a nylon suture and a support structure 120 having inclined surfaces were placed in an eye of a subject. The support structure comprised a therapeutic agent contained in a silicone matrix. The silicone matrix comprised inclusions of the therapeutic agent as described herein, and the therapeutic agent comprised a prostaglandin. The silicone matrix comprised NuSil Med 4810 and the amount prostaglandin comprised about 2% bimatoprost. The cross-sectional diameter of the support comprising the matrix was about 1 mm and extended about 90 degrees around the ring shaped suture with the suture extending there through. The amount of therapeutic agent within the matrix can be increased with additional studies and embodiments, for example to within a range from about 5-10% prostaglandin such as bimatoprost. […] The ring was inserted in the right eye (OD) and the TOP decreased from about 22 mm Hg to within a range from about 15 to 18 mm Hg to about 28 days post-op. The TOP of the untreated left eye (OS) remained substantially constant and within a range from about 19 mm Hg to about 22 mm Hg. The therapeutic agent comprised a prostaglandin, bimatoprost, and the estimated amount released per day started at approximately 22 ug/day and decreased to approximately 1 ug/day. […]

[1] = Estimated amount of bimatoprost released per day from the Experiment 6 test device; assay type: physicochemical; conditions: insert with about 2% bimatoprost in silicone matrix
Excerpt: as §1

[2] = Rate of release of bimatoprost from insert with silicone matrix (FIGS. 26A, 26B); assay type: physicochemical
Method: FIGS. 26A and 26B show rates of release of prostaglandin comprising bimatoprost from an insert comprising a silicone matrix. The estimated rate of release for a matrix having 7% prostaglandin comprising bimatoprost loaded on the insert is above 3.5 ug per day for at least about 90 days. The rate of release of prostaglandin comprising bimatoprost was measured from a matrix comprising medical grade silicone having an approximate durometer of 10 A. The configuration of the insert and matrix is described in Table 3 with reverence to mono v.1 which comprises a 1 mm diameter silicone matrix extending along a 75 degree arc length. The surface area was 47.9 mm^2 and the volume 10.4 mm^3. For the 7% loading the amount of drug loaded on the device was about 700 μg. The rate of release of about 0.9 ug/day for 90 days was measured and the rate of release for 120 days was estimated. The therapeutic agent was released for 70 days above 1 ug per day. Based on Table 3, the matrix can be configured to release additional amounts therapeutic agent. For example, the rate of release can be increased by more than 4× by extending the matrix 360 degrees around the suture.

[3] = Wash time in 70% isopropanol bath and rate of release from silicone matrices (FIG. 27); assay type: physicochemical; conditions: silicone ring with 7% bimatoprost; for elution rate: initial
Method: The experiments were conducted with silicone rings having 7% prostaglandin comprising bimatoprost and medical grade silicone having a rated durometer of Shore A 10 without drug. The elution rate for the unwashed matrix (“0 wash”) was about 35 ug per day and decreased substantially. […] By day 14 the rate of release was substantially the same for each of the unwashed matrix, the matrix washed for 15 minutes, matrix washed for 60 minutes, and the matrix washed for 180 minutes.

eye of a test subject = assay: IOP of a test subject wearing successive inserts (FIG. 28); assay type: in vivo, human
Method: The initial studies on the test subject appear to indicate it may be helpful to provide greater amounts of therapeutic agent than would be provided based on eye drop estimates. The TOP was measured and amounts of therapeutic agent estimated. […] The twin insert was placed in a solution when the patient insert was placed in the eye. The measured rate of release of the twin placed in solution was used to determine the rate of release of the insert placed in the eye. The data of this small study indicate that in at least some instances for some patients, the target threshold amount of therapeutic agent released continuously from an insert placed in the eye may be greater than the amount provided to tissue by drops. It was observed that providing amounts of therapeutic agent greater than the estimated amount provided by drops may provide an improved result. It was observed that after about sixty days the TOP had increased to about 19.5 mm Hg was close to the control eye, and the determined rate of release was about 1.2 ug of prostaglandin comprising bimatoprost per day. The insert was replaced with a second insert providing a rate of release of about 1.6 to 2.5 ug per day based on twin measurements, and the TOP decreased to within a range from about 17 to 18 mm Hg. The second insert was replaced with a third insert providing over 3.8 to 4 ug per day based on twin measurements, and the TOP decreased further to within a range from 14.5 to 16 mm Hg.

[4] = Rate of release measured on twin insert placed in solution (FIG. 28); assay type: physicochemical; conditions: for rate of release: based on twin measurements
Method: The initial studies on the test subject appear to indicate it may be helpful to provide greater amounts of therapeutic agent than would be provided based on eye drop estimates. The TOP was measured and amounts of therapeutic agent estimated. […] The twin insert was placed in a solution when the patient insert was placed in the eye. The measured rate of release of the twin placed in solution was used to determine the rate of release of the insert placed in the eye.

[5] = 60 minute wash in 70% isopropanol
[6] = 180 minute wash in 70% isopropanol

estimated amount released per day, end ([1]; decreased to): about 1 ug/day
estimated amount released per day, start ([1]; started at): about 22 ug/day
estimated rate of release ([2]; matrix having 7% bimatoprost loaded on an insert, for at least about 120 days): above 3 ug per day
estimated rate of release ([2]; matrix having 7% bimatoprost loaded on the insert, for at least about 90 days): above 3.5 ug per day
rate of release ([2]; mono v.1: 1 mm diameter 10 A silicone matrix, 75 degree arc, 7% loading (about 700 μg), measured for 90 days): about 0.9 ug/day
initial rate of release [3, 5]: about 13 ug per day
rate of release at 15 days [3, 5]: about 5 ug per day
initial rate of release [3, 6]: about 13 ug per day
rate of release at 15 days [3, 6]: about 5 ug per day
elution rate ([3]; unwashed matrix (0 wash)): about 35 ug per day
elution rate ([3]; washed for 15 minutes in 70% isopropanol): about 17 ug per day
determined rate of release ([4]; first insert, after about sixty days, twin insert in solution): about 1.2 ug per day
rate of release ([4]; second insert): 1.6 to 2.5 ug per day
rate of release ([4]; third insert): 3.8 to 4 ug per day
Structure (SMILES): CCNC(=O)CCC/C=C\C[C@@H]1[C@@H](/C=C/[C@@H](O)CCc2ccccc2)[C@H](O)C[C@@H]1O [bimatoprost]
TOP (eye of a subject): 15 to 18 mm Hg
TOP (eye of a test subject; first insert, after about sixty days, close to the control eye): about 19.5 mm Hg
TOP (eye of a test subject; second insert): 17 to 18 mm Hg
TOP (eye of a test subject; third insert): 14.5 to 16 mm Hg
